Results: patent US12371454B2, “Cyclic peptide compound having Kras inhibitory action” (priority 2019, dated 2025)
Starred links: 1 amine or outer side, 2 acyl side, 3 side chain; linkers in the order of their positions; H or OH if unused. Positions of bridges follow the written chain, without caps; N, C: chain ends. Non-standard residues stand in square brackets, D forms with d. Residues, ends and D or L forms follow the SMILES beside them. *: point of attachment. hPhe(3,5-F2-4-CF3) = N[C@@H](CCc1cc(F)c(C(F)(F)F)c(F)c1)C(=O)O; hPhe(3-Cl-4-CF3) = N[C@@H](CCc1ccc(C(F)(F)F)c(Cl)c1)C(=O)O; NMeAla(4-thiazolyl) = CN[C@@H](Cc1cscn1)C(=O)O; 3Oxa8azabicyclo(3.2.1)octane = C1CC2COCC1N2*; NMeAbu(4,4,4-F3) = CN[C@@H](CC(F)(F)F)C(=O)O; NMePhe(4-Me) = CN[C@@H](Cc1ccc(C)cc1)C(=O)O; NMeNle(6-CHF2) = CN[C@@H](CCCCC(F)F)C(=O)O; NMePhe(4-F) = CN[C@@H](Cc1ccc(F)cc1)C(=O)O; NMedβ3hAla = C[C@H](CC(=O)[*:2])N(C)[*:1]; NMeAla(cPent) = CN[C@@H](CC1CCCC1)C(=O)O; NMeGly(cPent) = CN[C@H](C(=O)O)C1CCCC1; NMeGly(cBu) = CN[C@H](C(=O)O)C1CCC1; NMeCha = CN[C@@H](CC1CCCCC1)C(=O)O; NMeChg = CN[C@H](C(=O)O)C1CCCCC1; NMeI = CC[C@H](C)[C@H](NC)C(=O)O; Gly(cBu) = N[C@H](C(=O)O)C1CCC1; NMeD = CN[C@@H](CC(=O)O)C(=O)O; NMeL = CN[C@@H](CC(C)C)C(=O)O; NMeV = CN[C@H](C(=O)O)C(C)C; d(β3hA) = C[C@@H](N)CC(=O)O; Azetidin(1-yl) = C1CN(*)C1; Ac6c = NC1(C(=O)O)CCCCC1; Morpholide = C1CN(*)CCO1; NMeA = CN[C@@H](C)C(=O)O; Piperidide = C1CCN(*)CC1; Ac5c = NC1(C(=O)O)CCCC1; Aze = O=C(O)[C@@H]1CCN1; Aib = CC(C)(N)C(=O)O; NEtG = CCNCC(=O)O; Sar = CNCC(=O)O

Tests used:
[1] = test system: Human pancreatic cancer cell line AsPC-1; experiment: Measurement of AsPC-1 cell growth inhibition (AsPC-1 CGI); format: cell-based; conditions: 96 h
Method in brief: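 AsPC-1 cells in 15% FBS RPMI-1640 were exposed to test compound for 96 hours at 37° C, with CellTiter-Glo as endpoint.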

[2] = target: T1, Kras and SOS1 (biotin-tagged human Kras loaded with GDP, His-tagged human SOS1) (Homo sapiens, UniProt P01116, G12D); experiment: Protein-protein interaction inhibition between Kras and SOS1 (KrasGl2D-SOS PPI) using AlphaScreen; format: binding; conditions: AlphaScreen; biotin-tagged human Kras loaded with GDP, His-tagged human SOS1; read-out: KRAS G12D-SOS PPI IC50
T1 construct: made in house; host or cells: E. coli (stated for Kras only)
Method in brief: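 Kras was produced in E. coli, purified, then loaded with GDP. It was paired via streptavidin acceptor beads with His-SOS1 held on nickel donor beads, and proximity signal at 520-620 nm was read after 680 nm illumination.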

T1 sequence (P01116 1-188 isoform P01116-2 G12D): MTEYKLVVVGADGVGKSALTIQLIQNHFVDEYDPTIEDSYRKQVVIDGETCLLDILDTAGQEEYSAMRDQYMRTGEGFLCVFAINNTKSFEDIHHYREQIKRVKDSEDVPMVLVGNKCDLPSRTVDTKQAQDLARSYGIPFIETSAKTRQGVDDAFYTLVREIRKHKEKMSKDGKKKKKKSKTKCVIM

Row | Compound | IC50 [1] [nM] | IC50 [2] [nM]
1 | CC[C@H](C)[C@@H]1NC(=O)[C@H](C2CCC2)N(C)C(=O)C[C@@H](C(=O)N2C3CCC2COC3)N(C)C(=O)[C@H](C2CCCCC2)N(C)C(=O)C2(CCCC2)NC(=O)[C@@H]2CCCN2C(=O)[C@H](CCc2ccc(C(F)(F)F)c(Cl)c2)NC(=O)CN(C)C(=O)[C@H](Cc2ccc(C)cc2)N(C)C(=O)CN(C)C(=O)CN(C)C1=O [Compound 353] ([NMeGly(cBu)]I[Sar][Sar][NMePhe(4-Me)][Sar][hPhe(3-Cl-4-CF3)]P[Ac5c][NMeChg][NMeD]-{3Oxa8azabicyclo(3.2.1)octane}; lactam N-11) | 50 to 100 | 0.69
2 | CC[C@H](C)[C@@H]1NC(=O)[C@H](CC(C)C)N(C)C(=O)C[C@@H](C)NC(=O)[C@H](C2CCCC2)N(C)C(=O)C(C)(C)NC(=O)[C@@H]2CCCN2C(=O)[C@H](CCc2ccc(C(F)(F)F)c(Cl)c2)NC(=O)CN(C)C(=O)[C@H](Cc2ccc(C)cc2)N(C)C(=O)[C@@H]2CCN2C(=O)[C@H](C)N(C)C1=O [Compound 354] (cyclo([Aib][NMeGly(cPent)][d(β3hA)][NMeL]I[NMeA][Aze][NMePhe(4-Me)][Sar][hPhe(3-Cl-4-CF3)]P)) | 100 to 500 | 1.6
3 | CC[C@H](C)[C@@H]1NC(=O)[C@H](C)N(C)C(=O)C[C@@H](C(=O)N2CCCCC2)N(C)C(=O)[C@H](C(C)C)N(C)C(=O)C2(CCCC2)NC(=O)[C@@H]2CCCN2C(=O)[C@H](CCc2ccc(C(F)(F)F)c(Cl)c2)NC(=O)CN(C)C(=O)[C@H](CC2CCCCC2)N(C)C(=O)CN(C)C(=O)CN(C)C1=O [Compound 360] ([NMeA]I[Sar][Sar][NMeCha][Sar][hPhe(3-Cl-4-CF3)]P[Ac5c][NMeV][NMeD]-Piperidide; lactam N-11) | 100 to 500 | 2.8
4 | CC[C@H](C)[C@@H]1NC(=O)[C@H](CC(C)C)N(C)C(=O)C[C@@H](C)NC(=O)[C@H](CC(C)C)N(C)C(=O)C2(CCCC2)NC(=O)[C@@H]2CCCN2C(=O)[C@H](CCc2cc(F)c(C(F)(F)F)c(F)c2)NC(=O)CN(C)C(=O)[C@H](CC2CCCCC2)N(C)C(=O)CN(C)C(=O)CN(C)C1=O [Compound 364] (cyclo([Ac5c][NMeL][d(β3hA)][NMeL]I[Sar][Sar][NMeCha][Sar][hPhe(3,5-F2-4-CF3)]P)) | 100 to 500 | 9.7
5 | CC[C@H](C)[C@@H]1NC(=O)[C@H](CC(F)(F)F)N(C)C(=O)C[C@@H](C(=O)N2CCOCC2)N(C)C(=O)[C@H](C2CCCCC2)N(C)C(=O)C2(CCCC2)NC(=O)[C@@H]2CCCN2C(=O)[C@H](CCc2ccc(C(F)(F)F)c(Cl)c2)NC(=O)CN(C)C(=O)[C@H](CC2CCCC2)N(C)C(=O)CN(C)C(=O)CN(C)C1=O [Compound 367] ([NMeAbu(4,4,4-F3)]I[Sar][Sar][NMeAla(cPent)][Sar][hPhe(3-Cl-4-CF3)]P[Ac5c][NMeChg][NMeD]-Morpholide; lactam N-11) | 100 to 500 | 0.6
6 | CC[C@H](C)[C@@H]1NC(=O)[C@H](CC(C)C)N(C)C(=O)C[C@@H](C(=O)N(C)C)N(C)C(=O)[C@H](C2CCCC2)N(C)C(=O)C2(CCCC2)NC(=O)[C@H](Cc2cscn2)N(C)C(=O)[C@H](CCc2ccc(C(F)(F)F)c(Cl)c2)NC(=O)CN(C)C(=O)[C@H](CC2CCCCC2)N(C)C(=O)[C@@H]2CCN2C(=O)[C@H](C)N(C)C1=O [Compound 384] ([NMeL]I[NMeA][Aze][NMeCha][Sar][hPhe(3-Cl-4-CF3)][NMeAla(4-thiazolyl)][Ac5c][NMeGly(cPent)][NMeD]-NMe2; lactam N-11) | 100 to 500 | 1
7 | CC[C@H](C)[C@@H]1NC(=O)[C@H](CC(C)C)N(C)C(=O)C[C@@H](C(=O)N(C)C)N(C)C(=O)[C@H]([C@@H](C)CC)N(C)C(=O)C2(CCCC2)NC(=O)[C@H](Cc2ccc(F)cc2)N(C)C(=O)[C@H](CCc2ccc(C(F)(F)F)c(Cl)c2)NC(=O)CN(C)C(=O)[C@H](Cc2ccc(C)cc2)N(C)C(=O)[C@@H]2CCN2C(=O)[C@H](C)N(C)C1=O [Compound 385] ([NMeL]I[NMeA][Aze][NMePhe(4-Me)][Sar][hPhe(3-Cl-4-CF3)][NMePhe(4-F)][Ac5c][NMeI][NMeD]-NMe2; lactam N-11) | 50 to 100 | 4.7
8 | CC[C@H](C)[C@@H]1NC(=O)[C@H](C2CCCC2)N(C)C(=O)C[C@@H](C(=O)N2CCCCC2)N(C)C(=O)[C@H](C(C)C)N(C)C(=O)C2(CCCC2)NC(=O)[C@@H]2CCCN2C(=O)[C@H](CCc2ccc(C(F)(F)F)c(Cl)c2)NC(=O)CN(C)C(=O)[C@H](CC2CCCCC2)N(C)C(=O)CN(C)C(=O)CN(C)C1=O [Compound 393] ([NMeGly(cPent)]I[Sar][Sar][NMeCha][Sar][hPhe(3-Cl-4-CF3)]P[Ac5c][NMeV][NMeD]-Piperidide; lactam N-11) | 100 to 500 | 5.3
9 | CC[C@H](C)[C@@H]1NC(=O)[C@H](CC(C)C)N(C)C(=O)C[C@@H](C)NC(=O)[C@H](C(C)C)N(C)C(=O)C2(CCCC2)NC(=O)[C@@H]2CCCN2C(=O)[C@H](CCc2ccc(C(F)(F)F)c(Cl)c2)NC(=O)CN(CC)C(=O)[C@H](CC2CCCCC2)N(C)C(=O)CN(C)C(=O)CN(C)C1=O [Compound 395] (cyclo([Ac5c][NMeV][d(β3hA)][NMeL]I[Sar][Sar][NMeCha][NEtG][hPhe(3-Cl-4-CF3)]P)) | 100 to 500 | 47
10 | CC(C)C[C@H]1C(=O)N[C@@H](C2CCC2)C(=O)N(C)CC(=O)N(C)CC(=O)N(C)[C@@H](CC2CCCCC2)C(=O)N(C)CC(=O)N[C@@H](CCc2ccc(C(F)(F)F)c(Cl)c2)C(=O)N2CCC[C@H]2C(=O)NC2(CCCC2)C(=O)N(C)[C@@H](C2CCCCC2)C(=O)N(C)[C@H](C(=O)N2CCCCC2)CC(=O)N1C [Compound 411] ([NMeL][Gly(cBu)][Sar][Sar][NMeCha][Sar][hPhe(3-Cl-4-CF3)]P[Ac5c][NMeChg][NMeD]-Piperidide; lactam N-11) | 50 to 100 | 0.62
11 | CC[C@H](C)[C@@H]1NC(=O)[C@H](CC(C)C)N(C)C(=O)C[C@@H](C)N(C)C(=O)[C@H](C2CCCC2)N(C)C(=O)C2(CCCC2)NC(=O)[C@@H]2CCCN2C(=O)[C@H](CCc2ccc(C(F)(F)F)c(Cl)c2)NC(=O)CN(C)C(=O)[C@H](CC2CCCCC2)N(C)C(=O)CN(C)C(=O)CN(C)C1=O [Compound 420] (cyclo([Ac5c][NMeGly(cPent)][NMedβ3hAla][NMeL]I[Sar][Sar][NMeCha][Sar][hPhe(3-Cl-4-CF3)]P)) | 50 to 100 | 3.4
12 | CC[C@H](C)[C@@H]1NC(=O)[C@H](CCCCC(F)F)N(C)C(=O)C[C@@H](C(=O)N2CCCCC2)N(C)C(=O)[C@H](C2CCCCC2)N(C)C(=O)C2(CCCC2)NC(=O)[C@@H]2CCCN2C(=O)[C@H](CCc2ccc(C(F)(F)F)c(Cl)c2)NC(=O)CN(C)C(=O)[C@H](CC2CCCCC2)N(C)C(=O)CN(C)C(=O)CN(C)C1=O [Compound 425] ([NMeNle(6-CHF2)]I[Sar][Sar][NMeCha][Sar][hPhe(3-Cl-4-CF3)]P[Ac5c][NMeChg][NMeD]-Piperidide; lactam N-11) | 50 to 100 | 0.57
13 | CC[C@H](C)[C@@H]1NC(=O)[C@H](C2CCC2)N(C)C(=O)C[C@@H](C(=O)N2CCOCC2)N(C)C(=O)[C@H](C2CCCCC2)N(C)C(=O)C2(CCCC2)NC(=O)[C@@H]2CCCN2C(=O)[C@H](CCc2ccc(C(F)(F)F)c(Cl)c2)NC(=O)CN(C)C(=O)[C@H](CC2CCCC2)N(C)C(=O)CN(C)C(=O)CN(C)C1=O [Compound 434] ([NMeGly(cBu)]I[Sar][Sar][NMeAla(cPent)][Sar][hPhe(3-Cl-4-CF3)]P[Ac5c][NMeChg][NMeD]-Morpholide; lactam N-11) | 50 to 100 | 0.52
14 | CC[C@H](C)[C@@H]1NC(=O)[C@H](CC(C)C)N(C)C(=O)C[C@@H](C(=O)N2CCC2)N(C)C(=O)[C@H](C2CCCCC2)N(C)C(=O)C2(CCCC2)NC(=O)[C@@H]2CCCN2C(=O)[C@H](CCc2ccc(C(F)(F)F)c(Cl)c2)NC(=O)CN(C)C(=O)[C@H](CC2CCCCC2)N(C)C(=O)CN(C)C(=O)CN(C)C1=O [Compound 437] ([NMeL]I[Sar][Sar][NMeCha][Sar][hPhe(3-Cl-4-CF3)]P[Ac5c][NMeChg][NMeD]-{Azetidin(1-yl)}; lactam N-11) | 50 to 100 | 0.47
15 | CC[C@H](C)[C@@H]1NC(=O)[C@H](CC(C)C)N(C)C(=O)C[C@@H](C(=O)N2CCCCC2)N(C)C(=O)[C@H](C(C)C)N(C)C(=O)C2(CCCC2)NC(=O)[C@@H]2CCCN2C(=O)[C@H](CCc2ccc(C(F)(F)F)c(Cl)c2)NC(=O)CN(C)C(=O)[C@H](CC2CCCCC2)N(C)C(=O)CN(C)C(=O)CN(C)C1=O [Compound 438] ([NMeL]I[Sar][Sar][NMeCha][Sar][hPhe(3-Cl-4-CF3)]P[Ac5c][NMeV][NMeD]-Piperidide; lactam N-11) | 50 to 100 | 6
16 | CC[C@H](C)[C@@H]1NC(=O)[C@H](CC(C)C)N(C)C(=O)C[C@@H](C)NC(=O)[C@H](C(C)C)N(C)C(=O)C2(CCCCC2)NC(=O)[C@@H]2CCCN2C(=O)[C@H](CCc2ccc(C(F)(F)F)c(Cl)c2)NC(=O)CN(C)C(=O)[C@H](CC2CCCCC2)N(C)C(=O)CN(C)C(=O)CN(C)C1=O [Compound 439] (cyclo([Ac6c][NMeV][d(β3hA)][NMeL]I[Sar][Sar][NMeCha][Sar][hPhe(3-Cl-4-CF3)]P)) | 100 to 500 | 52
17 | CC[C@H](C)[C@@H]1NC(=O)[C@H](CC(C)C)N(C)C(=O)C[C@@H](C(=O)N(C)C)N(C)C(=O)[C@H]([C@@H](C)CC)N(C)C(=O)C2(CCCC2)NC(=O)[C@H](Cc2cscn2)N(C)C(=O)[C@H](CCc2ccc(C(F)(F)F)c(Cl)c2)NC(=O)CN(C)C(=O)[C@H](Cc2ccc(C)cc2)N(C)C(=O)[C@@H]2CCN2C(=O)[C@H](C)N(C)C1=O [Compound 441] ([NMeL]I[NMeA][Aze][NMePhe(4-Me)][Sar][hPhe(3-Cl-4-CF3)][NMeAla(4-thiazolyl)][Ac5c][NMeI][NMeD]-NMe2; lactam N-11) | 20 to 50 | 0.73
